Assay results taken from PMC5341070, “Small molecule inhibitors block Gas6-inducible TAM activation and tumorigenicity” (Scientific Reports, 2017).

How the values were obtained:
Assay in all cases: biochemical
[1] = biological target: T1, ABL1(E255K)-phosphorylated (Homo sapiens, UniProt P00519, E255K); parameters: KINOMEscan (DiscoverX) competition binding screen of 97 human kinases, percent of control at 10 uM
T1 construct: phosphorylated
Method: (§1) The KINOMEscan profiling of the inhibitors were performed as per directions by the manufacturer (DiscoverX) against a panel of human protein kinases.

[2] = biological target: T2, ABL1(T315I)-phosphorylated (Homo sapiens, UniProt P00519, T315I); parameters: KINOMEscan (DiscoverX) competition binding screen of 97 human kinases, percent of control at 10 uM
T2 construct: phosphorylated
Method: as §1

BMPR2 = BMPR2 (Homo sapiens, UniProt Q13873); parameters: KINOMEscan (DiscoverX) competition binding screen of 97 human kinases, percent of control at 10 uM
Sequence of BMPR2 (Q13873 whole entry): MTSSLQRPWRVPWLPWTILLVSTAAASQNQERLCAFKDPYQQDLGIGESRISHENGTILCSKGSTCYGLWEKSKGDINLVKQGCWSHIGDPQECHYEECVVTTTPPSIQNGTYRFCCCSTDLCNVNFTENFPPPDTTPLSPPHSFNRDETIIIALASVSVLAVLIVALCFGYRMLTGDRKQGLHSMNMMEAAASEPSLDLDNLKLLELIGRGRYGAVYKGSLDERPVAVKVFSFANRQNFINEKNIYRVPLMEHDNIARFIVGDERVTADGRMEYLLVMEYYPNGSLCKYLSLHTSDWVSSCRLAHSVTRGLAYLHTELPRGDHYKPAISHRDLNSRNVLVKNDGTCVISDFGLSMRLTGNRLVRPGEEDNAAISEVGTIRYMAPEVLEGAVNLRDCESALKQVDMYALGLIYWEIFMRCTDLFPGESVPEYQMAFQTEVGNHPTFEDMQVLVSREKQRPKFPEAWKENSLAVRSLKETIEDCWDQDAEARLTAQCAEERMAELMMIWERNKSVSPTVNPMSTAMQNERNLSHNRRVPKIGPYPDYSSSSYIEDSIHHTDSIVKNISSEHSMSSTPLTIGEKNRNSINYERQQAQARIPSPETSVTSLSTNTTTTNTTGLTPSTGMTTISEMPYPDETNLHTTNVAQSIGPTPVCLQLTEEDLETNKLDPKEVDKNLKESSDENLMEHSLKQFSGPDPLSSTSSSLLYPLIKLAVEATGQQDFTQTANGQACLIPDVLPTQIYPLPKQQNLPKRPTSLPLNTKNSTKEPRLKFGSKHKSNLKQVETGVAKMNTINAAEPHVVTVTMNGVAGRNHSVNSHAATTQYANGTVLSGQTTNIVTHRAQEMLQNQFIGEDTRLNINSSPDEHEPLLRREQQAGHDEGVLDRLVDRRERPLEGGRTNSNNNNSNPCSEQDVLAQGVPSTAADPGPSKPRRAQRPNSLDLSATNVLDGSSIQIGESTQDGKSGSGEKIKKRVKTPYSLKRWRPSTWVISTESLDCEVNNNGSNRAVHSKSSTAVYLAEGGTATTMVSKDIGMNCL
Method: as §1

CDK3 = CDK3 (Homo sapiens, UniProt Q00526); parameters: KINOMEscan (DiscoverX) competition binding screen of 97 human kinases, percent of control at 10 uM
Method: as §1

CDK9 = CDK9 (Homo sapiens, UniProt P50750); parameters: KINOMEscan (DiscoverX) competition binding screen of 97 human kinases, percent of control at 10 uM
Sequence of CDK9 (P50750 whole entry): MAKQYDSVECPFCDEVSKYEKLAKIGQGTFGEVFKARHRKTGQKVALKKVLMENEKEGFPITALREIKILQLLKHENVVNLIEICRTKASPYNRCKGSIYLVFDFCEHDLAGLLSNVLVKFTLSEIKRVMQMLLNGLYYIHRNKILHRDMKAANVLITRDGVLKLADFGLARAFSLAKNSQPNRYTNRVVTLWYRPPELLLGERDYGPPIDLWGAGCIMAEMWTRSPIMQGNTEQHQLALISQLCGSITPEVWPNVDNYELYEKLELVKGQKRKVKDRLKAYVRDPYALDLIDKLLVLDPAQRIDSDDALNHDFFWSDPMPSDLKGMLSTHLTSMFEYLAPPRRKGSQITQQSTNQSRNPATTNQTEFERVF
Method: as §1

CSNK1G2 = CSNK1G2 (Homo sapiens, UniProt P78368); parameters: KINOMEscan (DiscoverX) competition binding screen of 97 human kinases, percent of control at 10 uM
Method: as §1

DCAMKL1 = biological target: T3, DCAMKL1 (Homo sapiens, UniProt O15075); parameters: KINOMEscan (DiscoverX) competition binding screen of 97 human kinases, percent of control at 10 uM
T3 construct: gene DCLK1
T3 sequence (O15075 whole entry): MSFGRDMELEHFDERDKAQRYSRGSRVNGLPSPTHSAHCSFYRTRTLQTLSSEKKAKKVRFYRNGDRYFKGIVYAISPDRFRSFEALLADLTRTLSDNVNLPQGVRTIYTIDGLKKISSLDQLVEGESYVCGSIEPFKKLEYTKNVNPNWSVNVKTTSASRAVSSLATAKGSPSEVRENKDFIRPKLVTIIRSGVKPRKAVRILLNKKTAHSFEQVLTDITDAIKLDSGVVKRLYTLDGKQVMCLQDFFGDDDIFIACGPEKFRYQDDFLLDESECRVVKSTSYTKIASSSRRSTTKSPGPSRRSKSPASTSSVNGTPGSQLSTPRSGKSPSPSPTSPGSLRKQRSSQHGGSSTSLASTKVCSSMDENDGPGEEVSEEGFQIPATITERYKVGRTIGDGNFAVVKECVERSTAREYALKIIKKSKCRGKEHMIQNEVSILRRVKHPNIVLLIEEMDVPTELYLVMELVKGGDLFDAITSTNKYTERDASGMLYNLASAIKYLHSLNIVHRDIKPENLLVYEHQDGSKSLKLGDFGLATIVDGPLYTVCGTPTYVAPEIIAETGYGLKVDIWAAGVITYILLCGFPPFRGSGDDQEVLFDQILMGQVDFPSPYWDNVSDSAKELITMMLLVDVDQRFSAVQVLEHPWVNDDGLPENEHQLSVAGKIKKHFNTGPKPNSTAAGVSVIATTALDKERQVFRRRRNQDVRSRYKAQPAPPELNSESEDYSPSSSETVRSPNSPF
Method: as §1

EGFR(L858R) = EGFR(L858R) (Homo sapiens, UniProt P00533, L858R); parameters: KINOMEscan (DiscoverX) competition binding screen of 97 human kinases, percent of control at 10 uM
Method: as §1

EPHA2 = EPHA2 (Homo sapiens, UniProt P29317); parameters: KINOMEscan (DiscoverX) competition binding screen of 97 human kinases, percent of control at 10 uM
Method: as §1

ERBB2 = ERBB2 (Homo sapiens, UniProt P04626); parameters: KINOMEscan (DiscoverX) competition binding screen of 97 human kinases, percent of control at 10 uM
Method: as §1

FGFR2 = FGFR2 (Homo sapiens, UniProt P21802); parameters: KINOMEscan (DiscoverX) competition binding screen of 97 human kinases, percent of control at 10 uM
Method: as §1

IKK-beta = biological target: T4, IKK-beta (Homo sapiens, UniProt O14920); parameters: KINOMEscan (DiscoverX) competition binding screen of 97 human kinases, percent of control at 10 uM
T4 construct: gene IKBKB
T4 sequence (O14920 whole entry): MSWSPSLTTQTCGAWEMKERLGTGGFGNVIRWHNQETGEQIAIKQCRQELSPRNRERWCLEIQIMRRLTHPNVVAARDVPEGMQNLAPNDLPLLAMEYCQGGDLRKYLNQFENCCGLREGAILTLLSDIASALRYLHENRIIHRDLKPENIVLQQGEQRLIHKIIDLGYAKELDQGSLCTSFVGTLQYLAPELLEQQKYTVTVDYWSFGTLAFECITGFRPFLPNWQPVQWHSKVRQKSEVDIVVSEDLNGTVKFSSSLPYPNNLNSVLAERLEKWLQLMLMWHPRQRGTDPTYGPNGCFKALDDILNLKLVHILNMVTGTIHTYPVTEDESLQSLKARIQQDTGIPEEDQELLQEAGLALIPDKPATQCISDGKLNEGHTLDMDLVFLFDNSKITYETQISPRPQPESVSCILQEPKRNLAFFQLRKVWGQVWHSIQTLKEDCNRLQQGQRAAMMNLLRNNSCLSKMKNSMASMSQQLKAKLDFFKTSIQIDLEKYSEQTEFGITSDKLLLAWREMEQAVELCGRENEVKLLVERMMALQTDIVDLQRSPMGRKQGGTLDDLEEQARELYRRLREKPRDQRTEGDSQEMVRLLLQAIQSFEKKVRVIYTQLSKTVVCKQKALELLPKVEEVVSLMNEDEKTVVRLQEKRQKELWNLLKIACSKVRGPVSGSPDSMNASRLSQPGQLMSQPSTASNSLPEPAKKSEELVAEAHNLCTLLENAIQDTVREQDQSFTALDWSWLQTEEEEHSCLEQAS
Method: as §1

INSR = INSR (Homo sapiens, UniProt P06213); parameters: KINOMEscan (DiscoverX) competition binding screen of 97 human kinases, percent of control at 10 uM
Method: as §1

[3] = biological target: T5, JAK3(JH1domain-catalytic) (Homo sapiens, UniProt P52333); parameters: KINOMEscan (DiscoverX) competition binding screen of 97 human kinases, percent of control at 10 uM
T5 construct: JH1domain-catalytic
Method: as §1

JNK3 = biological target: T6, JNK3 (Homo sapiens, UniProt P53779); parameters: KINOMEscan (DiscoverX) competition binding screen of 97 human kinases, percent of control at 10 uM
T6 construct: gene MAPK10
T6 sequence (P53779 whole entry): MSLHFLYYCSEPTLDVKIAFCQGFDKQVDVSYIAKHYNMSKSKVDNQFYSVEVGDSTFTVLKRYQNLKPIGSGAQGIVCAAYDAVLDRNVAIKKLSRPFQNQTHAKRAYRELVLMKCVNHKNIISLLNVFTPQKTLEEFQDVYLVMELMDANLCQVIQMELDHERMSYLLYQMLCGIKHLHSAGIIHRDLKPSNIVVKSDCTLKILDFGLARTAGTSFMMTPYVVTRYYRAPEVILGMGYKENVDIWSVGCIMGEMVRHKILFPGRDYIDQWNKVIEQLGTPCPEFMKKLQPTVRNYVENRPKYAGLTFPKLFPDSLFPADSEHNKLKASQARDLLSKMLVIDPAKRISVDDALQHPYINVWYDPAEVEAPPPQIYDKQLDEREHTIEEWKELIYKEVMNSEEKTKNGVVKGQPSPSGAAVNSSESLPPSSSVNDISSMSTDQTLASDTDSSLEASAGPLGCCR
Method: as §1

PAK2 = PAK2 (Homo sapiens, UniProt Q13177); parameters: KINOMEscan (DiscoverX) competition binding screen of 97 human kinases, percent of control at 10 uM
Method: as §1

PDPK1 = PDPK1 (Homo sapiens, UniProt O15530); parameters: KINOMEscan (DiscoverX) competition binding screen of 97 human kinases, percent of control at 10 uM
Method: as §1

PIK3CG = PIK3CG (Homo sapiens, UniProt P48736); parameters: KINOMEscan (DiscoverX) competition binding screen of 97 human kinases, percent of control at 10 uM
Method: as §1

PIM2 = PIM2 (Homo sapiens, UniProt Q9P1W9); parameters: KINOMEscan (DiscoverX) competition binding screen of 97 human kinases, percent of control at 10 uM
Sequence of PIM2 (Q9P1W9 whole entry): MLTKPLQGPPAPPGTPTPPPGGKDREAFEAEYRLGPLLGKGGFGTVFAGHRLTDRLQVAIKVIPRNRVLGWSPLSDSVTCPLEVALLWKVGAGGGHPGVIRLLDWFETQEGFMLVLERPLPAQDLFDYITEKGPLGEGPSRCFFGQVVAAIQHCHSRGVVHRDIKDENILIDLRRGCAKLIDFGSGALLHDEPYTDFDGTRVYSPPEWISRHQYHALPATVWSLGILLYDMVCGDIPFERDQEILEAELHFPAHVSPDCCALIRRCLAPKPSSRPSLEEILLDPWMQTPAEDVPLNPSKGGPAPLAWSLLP
Method: as §1

RET = RET (Homo sapiens, UniProt P07949); parameters: KINOMEscan (DiscoverX) competition binding screen of 97 human kinases, percent of control at 10 uM
Sequence of RET (P07949 whole entry): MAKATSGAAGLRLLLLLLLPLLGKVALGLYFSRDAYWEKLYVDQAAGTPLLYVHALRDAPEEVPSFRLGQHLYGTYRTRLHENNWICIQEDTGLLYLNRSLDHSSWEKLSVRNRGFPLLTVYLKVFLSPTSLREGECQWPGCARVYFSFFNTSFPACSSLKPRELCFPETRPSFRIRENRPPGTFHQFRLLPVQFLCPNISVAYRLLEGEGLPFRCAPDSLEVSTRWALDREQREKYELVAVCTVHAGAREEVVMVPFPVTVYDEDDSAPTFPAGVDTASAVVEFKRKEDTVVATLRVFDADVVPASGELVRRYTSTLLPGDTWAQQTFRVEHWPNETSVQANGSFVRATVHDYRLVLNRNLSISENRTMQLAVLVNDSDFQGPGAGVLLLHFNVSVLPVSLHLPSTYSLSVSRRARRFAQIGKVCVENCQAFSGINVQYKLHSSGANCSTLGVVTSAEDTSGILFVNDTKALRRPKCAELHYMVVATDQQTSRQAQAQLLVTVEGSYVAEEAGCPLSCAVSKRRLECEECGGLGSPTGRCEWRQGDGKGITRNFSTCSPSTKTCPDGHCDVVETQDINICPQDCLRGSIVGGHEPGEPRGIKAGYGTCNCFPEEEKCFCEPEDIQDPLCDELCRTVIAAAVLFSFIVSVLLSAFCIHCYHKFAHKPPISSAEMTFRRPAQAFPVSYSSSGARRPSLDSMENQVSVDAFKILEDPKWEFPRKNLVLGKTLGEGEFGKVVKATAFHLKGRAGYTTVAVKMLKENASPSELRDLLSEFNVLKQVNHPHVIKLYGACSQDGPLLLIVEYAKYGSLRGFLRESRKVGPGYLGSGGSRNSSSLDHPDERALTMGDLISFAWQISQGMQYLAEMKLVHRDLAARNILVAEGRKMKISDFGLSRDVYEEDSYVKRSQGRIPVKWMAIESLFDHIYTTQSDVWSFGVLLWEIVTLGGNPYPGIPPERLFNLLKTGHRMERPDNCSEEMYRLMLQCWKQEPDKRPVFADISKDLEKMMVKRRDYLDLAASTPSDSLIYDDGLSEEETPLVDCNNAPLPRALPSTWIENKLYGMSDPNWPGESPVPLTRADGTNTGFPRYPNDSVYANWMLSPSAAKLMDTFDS
Method: as §1

[4] = biological target: T7, RSK2(Kin.Dom.1-N-terminal) (Homo sapiens, UniProt P51812); parameters: KINOMEscan (DiscoverX) competition binding screen of 97 human kinases, percent of control at 10 uM
T7 construct: gene RPS6KA3; Kin.Dom.1-N-terminal
Method: as §1

SNARK = biological target: T8, SNARK (Homo sapiens, UniProt Q9H093); parameters: KINOMEscan (DiscoverX) competition binding screen of 97 human kinases, percent of control at 10 uM
T8 construct: gene NUAK2
Method: as §1

VEGFR2 = VEGFR2 (Homo sapiens, UniProt P35968); parameters: gene KDR; KINOMEscan (DiscoverX) competition binding screen of 97 human kinases, percent of control at 10 uM
Method: as §1

[5] = read-out: R428 %Ctrl @ 10000nM, binding competition
[6] = binding competition, % of control, read-out: RU-301 %Ctrl @ 10000nM

Nc1nc(Nc2ccc3c(c2)CC[C@@H](N2CCCC2)CC3)nn1-c1cc2c(nn1)-c1ccccc1CCC2 [R428]
percent of control binding at 10 µM [1, 5]: 0.25% | percent of control binding at 10 µM [2, 5]: 0.9% | percent of control binding at 10 µM (BMPR2; [5]): 23% | percent of control binding at 10 µM (CDK3; [5]): 72% | percent of control binding at 10 µM (CDK9; [5]): 92% | percent of control binding at 10 µM (CSNK1G2; [5]): 4.6% | percent of control binding at 10 µM (DCAMKL1; [5]): 98% | percent of control binding at 10 µM (EGFR(L858R); [5]): 10% | percent of control binding at 10 µM (EPHA2; [5]): 71% | percent of control binding at 10 µM (ERBB2; [5]): 46% | percent of control binding at 10 µM (FGFR2; [5]): 30% | percent of control binding at 10 µM (IKK-beta; [5]): 4.8% | percent of control binding at 10 µM (INSR; [5]): 14% | percent of control binding at 10 µM [3, 5]: 0.2% | percent of control binding at 10 µM (JNK3; [5]): 46% | percent of control binding at 10 µM (PAK2; [5]): 69% | percent of control binding at 10 µM (PDPK1; [5]): 34% | percent of control binding at 10 µM (PIK3CG; [5]): 21% | percent of control binding at 10 µM (PIM2; [5]): 100% | percent of control binding at 10 µM (RET; [5]): 0% | percent of control binding at 10 µM [4, 5]: 2.1% | percent of control binding at 10 µM (SNARK; [5]): 0.65% | percent of control binding at 10 µM (VEGFR2; [5]): 1%

Cc1cc(CSc2ccccc2C(=O)NCCNc2ccc(C(F)(F)F)cc2[N+](=O)[O-])on1 [RU-301]
remaining binding at 10 µM [1, 6]: 94% | remaining binding at 10 µM [2, 6]: 100% | remaining binding at 10 µM (BMPR2; [6]): 78% | remaining binding at 10 µM (CDK3; [6]): 93% | remaining binding at 10 µM (CDK9; [6]): 95% | remaining binding at 10 µM (CSNK1G2; [6]): 100% | remaining binding at 10 µM (DCAMKL1; [6]): 81% | remaining binding at 10 µM (EGFR(L858R); [6]): 94% | remaining binding at 10 µM (EPHA2; [6]): 96% | remaining binding at 10 µM (ERBB2; [6]): 94% | remaining binding at 10 µM (FGFR2; [6]): 100% | remaining binding at 10 µM (IKK-beta; [6]): 100% | remaining binding at 10 µM (INSR; [6]): 89% | remaining binding at 10 µM [3, 6]: 95% | remaining binding at 10 µM (JNK3; [6]): 100% | remaining binding at 10 µM (PAK2; [6]): 96% | remaining binding at 10 µM (PDPK1; [6]): 99% | remaining binding at 10 µM (PIK3CG; [6]): 100% | remaining binding at 10 µM (PIM2; [6]): 83% | remaining binding at 10 µM (RET; [6]): 97% | remaining binding at 10 µM [4, 6]: 74% | remaining binding at 10 µM (SNARK; [6]): 100% | remaining binding at 10 µM (VEGFR2; [6]): 99%
